Laboratory results reported in patent publication US4767749A, “Ester of (triarylphosphoranylidene)carbamic acid having diuretic and ability to lower plasma renin properties” (American Cyanamid Company, priority 1986, dated 1988).
Like-named read-outs stand apart in the source and are kept apart here.

Key:
[1] = test system: spontaneously hypertensive rats (SHR); test: Diuretic activity in spontaneously hypertensive rats; assay type: in vivo, male spontaneously hypertensive rats (Okamoto strain); conditions: 100 mg/kg by gavage with 0.9% sodium chloride loading 25 ml/kg; 0-5 hour urine
Description: The diuretic activity of the compounds of this invention was also determined according to the method of Chan, P. S. and Poorvin, D., Sequential method for combined screening antihypertensive and diuretic agents in the same spontaneously hypertensive rat. Clinical and Experimental Hypertension, 1(6), 817-830 (1979).
Male spontaneously hypertensive rats (SHR) of Okamoto strain, 16 weeks old, Taconic Farms Inc. were used in the test. These rats were kept on Purina laboratory chow and tap water ad libitum for 8 weeks before use. One male adult rat (about 300 g) was dosed by gavage with a test compound at 100 mg/kg together with 0.9% sodium chloride loading at 25 ml/kg at zero hour. The test compound was suspended in 3% preboiled starch at 50 mg/ml. The rat was put in a metabolism cage. The 0-5 hour urine was collected and urinary sodium and potassium were determined using a Beckman Astra 4. The effects of representative compounds of the invention according to this test appear in Table III expressed in milliequivalents (mEQ) of urinary sodium and potassium excreted.

[2] = test system: cardiac contractility in anesthetized dogs; test: Effect on cardiac contractility in anesthetized dogs, intravenous; assay type: in vivo, dog; conditions: intravenous administration; same effect as in isolated rat heart (Table IV)
[3] = test system: plasma renin activity; test: Lowering of plasma renin activity in normal conscious rats; assay type: in vivo, male Wistar rats; conditions: single 25 mg/kg oral dose, 6 rats
Description: Compounds were tested for their ability to lower plasma renin activity of conscious, male Wistar rats (180-200 g, Charles River Labs.). Test agents were compounded in a mortar and pestle with 3% preboiled starch suspension. Rats were dosed orally by gavage with 25 mg/kg test agent in a dose volume of 2 ml/kg. At time zero and 1/3, 1, 3 and 6 hours relative to dosing, rats were sacrificed by decapitation and the first 3 seconds of blood collected in two chilled Vacutainer® tubes (Becton-Dickinson, Rutherford, N.J.) containing 40 μl of 150 mg/ml tripotassium EDTA. Plasma fractions, obtained by centrifugation for 20 minutes at 4° C. and 3000 G, were incubated (one of each pair at 37° C., the other at 4° C.) at pH 6.8 in 50 mM phosphate buffer to produce angiotensin I. The incubates contained peptidase inhibitors to prevent angiotensin I degradation and the buffer contained one mg/ml lysozyme (Sigma Grade III) used as an antiabsorbant. The incubates were diluted 20 fold in cold Tris buffer (pH adjusted to 7.4 with glacial acetic acid) also containing one mg/ml lysozyme, and then frozen. Diluted incubates were assayed within 3 days for angiotensin I content by radioimmunoassay according to a modification of the method of Haber, et al., J. Clin. Endocrin., 29, 1349-1355 (1969). Renin activity is calculated as the rate of production of angiotensin I (nanograms of angiotensin I/ml plasma/hour at 37° C.) less controls (rate at 4° C.).

[4] = test system: plasma renin activity; test: Inhibition of evoked (drug-induced) elevation of plasma renin activity in conscious rats; assay type: in vivo, male Wistar rats; conditions: Rattus norvegicus, 30 min before provocative treatment; for inhibition in vivo at 25 mg/kg: 25 mg/kg oral
Description: Inhibition of evoked increase of plasma renin activity was determined by the following test.
Compounds were tested for their ability to prevent drug-induced elevation of plasma renin activity (PRA) in concious, male Wistar rats (180-200 g, Charles River Lab.). PRA elevation was induced by a combined oral provacative treatment (C) of hydrochlorothiazide (10 mg/kg) and 1-(3-benzoyl-3-mercapto-2-methylpropionyl)-L-proline, acetate (U.S. Pat. No. 4,226,775) (one mg/kg), prepared by compounding in a mortar and pestle with preboiled 3% starch suspension. This treatment provided the daily maximum PRA. The daily minimum PRA was obtained from rats given oral starch suspension (S) alone. The magnitude of drug effect on PRA elevation was ascertained from rats pretreated orally with test agent (D), at the indicated doses, 30 minutes prior to administration of provacative treatment (C). The test agent was also compounded in preboiled 3% starch suspension. The dose volumes for both pretreatment and provocative treatment were 2 ml/kg. One hour after provocative treatment the rats were sacrificed by decapitation and the first 3 seconds of blood collected in two chilled Vacutainer® tubes (Becton-Dickinson, Rutherford, N.J.) containing 40 μl of 150 mg/ml tripotassium EDTA. The plasma fractions, obtained by centrifugation for 20 minutes at 4° C. and 3000 G, were incubated (one of each pair at 37° C., the other at 4° C.) at pH 6.8 in 50 mM phosphate buffer to produce angiotensin I. The incubates contained peptidase inhibitors to prevent angiotensin I degradation and the incubation buffer contained one mg/ml lysozyme (Sigma Grade III) used as an antiabsorbant. The incubates were diluted 20 fold in cold 100 mM Tris buffer (pH adjusted to 7.4 with glacial acetic acid) also containing one mg/ml lysozyme, and then frozen. Diluted incubates were assayed within 3 days for angiotensin I content by radioimmunoassay according to a modification of the method of Haber, et al., J. Clin. Endocrin., 29, 1349-1355 (1969).
PRA is calculated as follows:
PRA(ng AI/hour/ml plasma)=PRA 37° C.-PRA 4° C.
Percent inhibition of PRA elevation is calculated as follows: [formula]

[5] = test system: isolated rat hearts; test: Cardiodynamic effects in the isolated perfused rat heart preparation; conditions: for activation at 1 µg/mL / activation at 4 µg/mL / activation at 8 µg/mL: Rattus norvegicus; for HR (mean % change): rate of cardiac contraction
Description: The effect of (triphenylphospharnylidene)carbamic acid, ethyl ester on cardiac contractility was determined by the following test.
Isolated rat hearts were prepared and perfused essentially as described by Neely and Rovetto, Techniques for perfusing isolated rat hearts., in Methods of Enzymology, 24, part D, 43-60 (1975), J. G. Hardman and B. W. O'Malley (eds.), Academic Press, New York, N.Y. The hearts were cooled in ice cold saline and transferred to a Langendorff apparatus and perfused in a retrograde fashion with oxygenated Krebs-Henseleit buffer at 37° C. A 2-0 silk thread was secured to the left ventricular apex and run via pulleys to a force displacement transducer (Grass Instrument Co., model FT03C). Force of contraction (F), the first derivative of force with respect to time (dF/dt), and rate of cardiac contraction (HR) were monitored on a polygraph recorder (Grass Instrument Co., model 7D).
The perfusion medium was a modified Krebs-Henseleit buffer of the following composition:
This medium was equilibrated with 95% oxygen:5% carbon dioxide at 37° C.
(Triphenylphosphoranylidene)carbamic acid, ethyl ester was dissolved in absolute ethanol at a concentration of 10 mg/ml and then diluted with Krebs-Henseleit buffer to the required stock concentration. The stock solution was infused at a constant rate by a syringe pump into the flow of buffer presented to the isolated heart at a rate necessary to achieve the desired final concentration.

CCOC(=O)N=P(c1ccccc1)(c1ccccc1)c1ccccc1 [(Triphenylphosphoranylidene)carbamic acid, ethyl ester]
Potassium (urinary excretion) [1]: 0.50 mEQ/5 Hours
Sodium (urinary excretion) [1]: 1.86 mEQ/5 Hours
Volume (urine) [1]: 15.5 mL
effect on cardiac contractility in anesthetized dogs [2]: The same effect has been achieved
% Lowering of plasma renin activity ([3]; 0 hours after dose): 0%
% Lowering of plasma renin activity ([3]; 1/3 hour after dose): 38%
% Lowering of plasma renin activity ([3]; 1 hour after dose): 74%
% Lowering of plasma renin activity ([3]; 3 hours after dose): 59%
% Lowering of plasma renin activity ([3]; 6 hours after dose): 40%
inhibition in vivo at 3 mg/kg ([4]; 3 mg/kg oral): 22%
inhibition in vivo at 5 mg/kg ([4]; 5 mg/kg oral): 29%
inhibition in vivo at 7 mg/kg ([4]; 7 mg/kg oral): 46%
inhibition in vivo at 10 mg/kg ([4]; 10 mg/kg oral): 81%
inhibition in vivo at 15 mg/kg ([4]; 15 mg/kg oral): 79%
inhibition in vivo at 25 mg/kg [4]: 80%
activation at 1 µg/mL ([5]; final drug concentration 1 mg/liter, 7 hearts, read-out: Concentration Force (g) (mean % change)): 5%
activation at 1 µg/mL ([5]; final drug concentration 1 mg/liter, 7 hearts, read-out: dF/dt (g/sec) (mean % change)): 6%
activation at 4 µg/mL ([5]; final drug concentration 4 mg/liter, 6 hearts, read-out: Concentration Force (g) (mean % change)): 18%
activation at 4 µg/mL ([5]; final drug concentration 4 mg/liter, 6 hearts, read-out: dF/dt (g/sec) (mean % change)): 16%
activation at 8 µg/mL ([5]; final drug concentration 8 mg/liter, 5 hearts, read-out: Concentration Force (g) (mean % change)): 24%
activation at 8 µg/mL ([5]; final drug concentration 8 mg/liter, 5 hearts, read-out: dF/dt (g/sec) (mean % change)): 21%
HR (mean % change) ([5]; final drug concentration 1 mg/liter, 7 hearts): -3 mean % change
HR (mean % change) ([5]; final drug concentration 4 mg/liter, 6 hearts): -2 mean % change
HR (mean % change) ([5]; final drug concentration 8 mg/liter, 5 hearts): -2 mean % change

COC(=O)N=P(c1ccccc1)(c1ccccc1)c1ccccc1Cl [[(2-chlorophenyl)diphenylphosphoranylidene]carbamic acid, methyl ester]
Potassium (urinary excretion) [1]: 0.94 mEQ/5 Hours
Sodium (urinary excretion) [1]: 2.30 mEQ/5 Hours
Volume (urine) [1]: 20.0 mL
inhibition in vivo at 25 mg/kg [4]: 98%

O=C(N=P(c1ccccc1)(c1ccccc1)c1ccccc1)OCc1cccnc1 [(triphenylphosphoranylidene)carbamic acid, 3-pyridinylmethyl ester]
Potassium (urinary excretion) [1]: 1.00 mEQ/5 Hours
Sodium (urinary excretion) [1]: 1.60 mEQ/5 Hours
Volume (urine) [1]: 14.5 mL
inhibition in vivo at 25 mg/kg [4]: 40%

O=C(N=P(c1ccccc1)(c1ccccc1)c1ccccc1)OC1CCOC1 (stereo not drawn) [(Triphenylphosphoranylidene)carbamic acid, tetrahydro-3-furanyl ester]
Potassium (urinary excretion) [1]: 0.70 mEQ/5 Hours
Sodium (urinary excretion) [1]: 1.10 mEQ/5 Hours
Volume (urine) [1]: 14.8 mL
inhibition in vivo at 25 mg/kg [4]: 69%
inhibition in vivo at 50 mg/kg ([4]; 50 mg/kg oral): 49%
inhibition in vivo at 100 mg/kg ([4]; 100 mg/kg oral): 85%

Cc1ccccc1P(=NC(=O)OCc1cccnc1)(c1ccccc1)c1ccccc1 [[(2-Methylphenyl)diphenylphosphoranylidene]carbamic acid, 3-pyridinylmethylester]
Potassium (urinary excretion) [1]: 0.62 mEQ/5 Hours
Sodium (urinary excretion) [1]: 1.48 mEQ/5 Hours
Volume (urine) [1]: 12.3 mL
inhibition in vivo at 25 mg/kg [4]: 75%
